Experimental data published in patent US5316944A, “Enzymatic resolution of a racemic mixture of gamma-amino acids using penicillin acylase” (Merrell Dow Pharmaceuticals, priority 1992, dated 1994).

Assays:
penicillin acylase = penicillin acylase (Escherichia coli, UniProt P06875); assay: penicillin acylase-catalyzed hydrolysis of N-phenylacetyl derivatives; assay type: biochemical, E.coli; details: for E: E values calculated from the yields and the ee's of the (R)-enantiomers; for Reaction rate: [S] = 50 mm, pH 7.8, 25° C.
penicillin acylase, sequence (P06875 290-846): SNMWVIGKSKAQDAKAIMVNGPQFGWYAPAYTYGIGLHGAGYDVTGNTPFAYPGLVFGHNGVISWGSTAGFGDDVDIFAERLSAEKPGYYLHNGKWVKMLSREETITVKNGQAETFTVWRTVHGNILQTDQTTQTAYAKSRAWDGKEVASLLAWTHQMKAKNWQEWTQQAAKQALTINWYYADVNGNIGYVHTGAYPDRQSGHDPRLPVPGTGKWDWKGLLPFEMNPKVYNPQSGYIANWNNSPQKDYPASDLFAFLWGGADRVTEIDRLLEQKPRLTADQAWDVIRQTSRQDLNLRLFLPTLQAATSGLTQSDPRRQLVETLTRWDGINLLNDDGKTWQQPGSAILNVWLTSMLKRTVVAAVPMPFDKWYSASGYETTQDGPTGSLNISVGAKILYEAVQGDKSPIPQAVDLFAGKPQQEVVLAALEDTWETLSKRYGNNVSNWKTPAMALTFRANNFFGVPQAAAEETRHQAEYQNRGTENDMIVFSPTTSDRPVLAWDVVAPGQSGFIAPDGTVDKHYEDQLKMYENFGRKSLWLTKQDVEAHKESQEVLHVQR
penicillin acylase, sequence (P06875 27-235): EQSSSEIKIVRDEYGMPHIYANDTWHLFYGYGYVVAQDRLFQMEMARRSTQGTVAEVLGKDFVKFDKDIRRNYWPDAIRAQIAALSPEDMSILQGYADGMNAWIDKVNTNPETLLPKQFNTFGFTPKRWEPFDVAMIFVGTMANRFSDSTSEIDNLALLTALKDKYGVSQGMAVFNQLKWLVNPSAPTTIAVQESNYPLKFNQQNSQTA
Excerpt: Here we report a simple procedure for the preparation of the enantiomers of γ-ethynyl GABA, γ-allenyl GABA, and γ-vinyl GABA by penicillin acylase-catalyzed hydrolysis of the corresponding N-phenylacetyl derivatives. Penicillin acylase (PA) from E.coli is used in industry for the preparation of 6-aminopenicillanic acid and semisynthetic β-lactam antibiotics (V. K. Svedas et al., Enzyme Microb. Technol., 2, 138 (1980)). PA is highly specific to phenylacetyl group and catalyzes its cleavage not only from penicillins, but also from amides, peptides, and esters (M. Cole, Biochem J., 115, 733 (1969); Ibid, 741; and, A. Czentirmai, Acta Microbiol. Acad. Sci. Hung., 12, 395 (1965/1966). The structure of the leaving group of the substrates hardly affects the rate constants of the hydrolytic reactions (M. Cole, Nature, 203, 519 (1964), and A. L. Margolin et al., Biochim. Biophys. Acta, 616, 283 (1980)). The enantioselectivity of PA was exploited in the preparation of amino acids (D. Rossi et al., Experientia, 33, 1557 (1977) and Ibid, 41, 35 (1985)), aminoalkylphosphonic acids (V. A. Solodenko et al., Tetrahedron, 47, 3989 (1991)), esters and alcohols (C. Fuganti et al., Tetrahedron Letters, 44, 2575 (1988), and H. Waldman, 30, 3057 (1989)), although the hydrolysis of an ester bond normally results in products with modest optical purity.
In a typical experiment, 0.7 g of penicillin acylase immobilized on Eupergit C, was suspended in a solution of (N-phenylacetyl)-vinyl GABA (1.0 g; 4 mmol) in 35 ml 0.1 M phosphate buffer, pH 7.8. The mixture was stirred at room temperature (r.t.) for 5 hours. Then the solution was adjusted to pH 2 and the remaining substrate was extracted with CH2 Cl2 to give (S)-(N-phenylacetyl)-vinyl GABA (organic layer) and (R)-γ-vinyl GABA (aqueous). Since the chemical deacylation of (S)-(N-phenylacetyl)-vinyl GABA under acid conditions results in the formation of byproducts the same enzyme was used for the deacylation of (S)-(N-phenylacetyl)-vinyl GABA. To achieve an effective hydrolysis, a larger amount of Eupergit-PA (1.5 g), higher reaction temperature (45° C.), and longer reaction time (2 days) were used. When the reaction was complete (HPLC) the Eupergit-PA was filtered off and phenylacetic acid was extracted with CH2 Cl2 from acidic solution (pH 2). The aqueous solution of both (R)- and (S)-γ-vinyl GABA were subjected to ion-exchange chromatography (Dowex 1×2- 100 (OH-)) followed by lyophilization. The enamtiomers of γ-ethynyl GABA and γ-allenyl GABA were prepared by the same procedure (Table 1).
^b [S] = 50 mm; pH 7.8:25° C.
^f The E values were calculated from the yields and the ee's of the
(R)enantiomers (C. S. Chen, et al., J. Am. Chem. Soc., 104, 7294 (1982)).

[1] = system: experimentally-induced seizures; details: compared with (S)-counterpart or racemic compound; cited from earlier work
GABA-T = details: known to elevate brain levels of GABA; cited from earlier work
[2] = which enantiomer is active; cited from earlier work

Row | SMILES | E (penicillin acylase) | Reaction rate (penicillin acylase) | inhibition of GABA-T (GABA-T) | also measured
1 | C=C=CC(CCC(=O)O)NC(=O)Cc1ccccc1 (racemic) [Allenyl] | 20 | 46% | – | –
2 | C#CC(CCC(=O)O)NC(=O)Cc1ccccc1 (racemic) [Ethynyl] | > 100 | 100% | – | –
3 | C=CC(CCC(=O)O)NC(=O)Cc1ccccc1 (racemic) [Vinyl, (N-phenylacetyl)-vinyl GABA] | 17 | 39% | – | –
4 | C#C[C@H](N)CCC(=O)O [(R)-γ-ethynyl GABA] | – | – | – | activity as an anticonvulsant agent [1]: more active
5 | C=C=CC(N)CCC(=O)O (stereo not drawn) [γ-allenyl GABA, 4-amino-hepta-5,6-dienoic acid] | – | – | irreversible inhibitors | biological activity [2]: resides in the (S)-enantiomers
6 | C#CC(N)CCC(=O)O (stereo not drawn) [γ-ethynyl GABA, 4-aminohex-5-ynoic acid] | – | – | irreversible inhibitors | –
7 | C=CC(N)CCC(=O)O (stereo not drawn) [γ-vinyl GABA, 4-aminohex-5-enoic acid] | – | – | irreversible inhibitors | biological activity [2]: resides in the (S)-enantiomers
